Data reported in ChEMBL document CHEMBL1201862, “PubChem BioAssay data set” (2004).
Active and inactive are the calls of the source.

Key:
[1] = molecular target: Induced myeloid leukemia cell differentiation protein Mcl-1 (Homo sapiens, UniProt Q07820); assay type: functional
Large T antigen = Large T antigen (Simian virus 40, UniProt P03070); assay type: functional, Betapolyomavirus macacae;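 also: Confirmatory-stage PubChem screen for compounds that inhibit SV40 T antigen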
[2] = Luminescence Cell-Based Dose Response to Identify Activators of Luciferase Translation or Activity in H4-C Neuroglioblastoma Cells. [Related pubchem assays: 1829 (Project Summary), 1814 (Primary HTS)]; assay type: functional
[3] = Luminescence Cell-Based Dose Response to Identify Activators of 5'UTR Stem-Loop Driven Prion Protein mRNA Translation in H4-C Neuroglioblastoma Cells. [Related pubchem assays: 1829 (Project Summary), 1814 (Primary HTS)]; assay type: functional
[4] = Luminescence Cell-Based Dose Confirmation to Identify Activators of 5'UTR Stem-Loop Driven Alpha-Synuclein mRNA Translation in H4 Neuroglioblastoma Cells. [Related pubchem assays: 1829 (Project Summary), 1814 (Primary HTS)]; assay type: functional
H4 = test: Luminescence Cell-Based Dose Response HTS to Identify Activators of 5'UTR Stem-Loop Driven Prion Protein mRNA Translation in H4 Neuroglioblastoma Cells. [Related pubchem assays: 1829 (Project Summary), 1814 (Primary HTS)]; assay type: functional; details: Homo sapiens
[5] = Luminescence Cell-Based Dose Response HTS to Identify Activators of Luciferase Translation or Activity in H4 […] Cells. [Related pubchem assays: 1829 (Project Summary), 1814 (Primary HTS)]; assay type: functional
[6] = blockers of HIV-1 envelope-mediated cell-cell fusion – cherry-pick, dose response (AID 652057); assay type: functional, cell-based
[7] = HIV-1 AD8 envelope cell-cell fusion blockers – cherry-pick, dose response (AID 652062); assay type: functional, cell-based;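 also: luciferase signal from cell-cell fusion driven by HIV-1 clade B AD8 Env; potency is for inhibitors of fusion seen as a drop in luminescence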
[8] = off-target signal loss in HeLa-CEM21 co-culture – HeLa F-luc CTL cells, cherry-picked, counter-screen for HIV-1 Env fusion inhibitor project, dose response (AID 652040); assay type: functional, cell-based;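 also: potency for signal decrease marking cytotoxic or nonspecific inhibition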
[9] = blockers of HIV-1 ZM109 envelope-driven cell-cell fusion – HeLa effector, CEM target cells, luciferase, cherry-pick, dose response (AID 652058); assay type: functional, cell-based;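 also: luciferase signal from HIV-1 Env mediated cell-cell fusion of effector and target cells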
Nonstructural protein 1 = Nonstructural protein 1 (Influenza A virus, UniProt Q194T2); assay type: functional, Influenza A virus (A/California/07/2009(H1N1))
Chain of Nonstructural protein 1 (Q194T2 whole entry): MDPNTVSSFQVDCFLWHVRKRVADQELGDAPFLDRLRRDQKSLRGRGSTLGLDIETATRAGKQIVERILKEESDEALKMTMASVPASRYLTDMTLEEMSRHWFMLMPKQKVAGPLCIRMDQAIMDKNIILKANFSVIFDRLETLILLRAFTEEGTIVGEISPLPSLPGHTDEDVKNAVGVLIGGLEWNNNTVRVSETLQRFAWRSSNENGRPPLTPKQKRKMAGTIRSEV

[10] = molecular target: T1, DNA repair protein RAD52 homolog (Homo sapiens, UniProt P43351); assay type: functional, biochemical
T1 sequence (P43351 whole entry): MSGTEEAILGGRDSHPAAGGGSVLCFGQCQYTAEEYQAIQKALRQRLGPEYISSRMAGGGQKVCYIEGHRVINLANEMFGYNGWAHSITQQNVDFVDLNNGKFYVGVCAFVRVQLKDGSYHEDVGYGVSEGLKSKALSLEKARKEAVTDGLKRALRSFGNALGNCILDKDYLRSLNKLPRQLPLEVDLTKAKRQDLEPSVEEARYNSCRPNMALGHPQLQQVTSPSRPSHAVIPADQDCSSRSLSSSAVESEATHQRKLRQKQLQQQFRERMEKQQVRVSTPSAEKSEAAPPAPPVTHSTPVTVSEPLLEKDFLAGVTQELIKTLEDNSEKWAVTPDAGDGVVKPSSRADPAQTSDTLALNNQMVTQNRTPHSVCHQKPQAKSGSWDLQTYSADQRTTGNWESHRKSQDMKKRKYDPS

[11] = molecular target: T2, Heat shock factor protein 1 (Mus musculus, UniProt P38532); test: decrease of HSF1-responsive luciferase luminescence – cell-based, NIH3T3, dose retest, confirmation (AID 2382); assay type: functional;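 also: NIH3T3 fibroblasts with HSF1-driven luciferase reporter stressed by proteasome inhibitor MG132; luminescence from HSF1-driven luciferase expression after 8 hours of MG132 stress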
T2 sequence (P38532 whole entry): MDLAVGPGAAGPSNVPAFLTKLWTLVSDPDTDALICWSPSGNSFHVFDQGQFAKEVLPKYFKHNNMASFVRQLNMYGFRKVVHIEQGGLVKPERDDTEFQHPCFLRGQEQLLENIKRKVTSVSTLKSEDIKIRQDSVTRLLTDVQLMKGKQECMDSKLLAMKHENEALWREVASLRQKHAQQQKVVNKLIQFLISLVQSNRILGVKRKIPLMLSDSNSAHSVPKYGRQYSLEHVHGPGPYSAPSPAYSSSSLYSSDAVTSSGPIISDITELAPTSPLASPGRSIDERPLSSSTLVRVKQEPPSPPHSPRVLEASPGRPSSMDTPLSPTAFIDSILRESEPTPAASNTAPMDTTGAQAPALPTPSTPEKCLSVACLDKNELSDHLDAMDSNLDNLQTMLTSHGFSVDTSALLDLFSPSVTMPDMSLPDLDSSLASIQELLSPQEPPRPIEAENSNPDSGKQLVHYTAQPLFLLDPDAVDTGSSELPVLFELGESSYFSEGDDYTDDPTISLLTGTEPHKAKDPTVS

[12] = molecular target: T3, Long-chain-fatty-acid--AMP ligase FadD28 (Mycobacterium tuberculosis, UniProt P9WQ59); test: Fluorescence polarization aasay to screen for inhibitors that compete for the binding of FadD28 to a bisubstrate Measured in Biochemical System Using Plate Reader - 2147-01_Inhibitor_Dose_CherryPick_Activity.; assay type: functional, Mycobacterium tuberculosis H37Rv
T3 sequence (P9WQ59 whole entry): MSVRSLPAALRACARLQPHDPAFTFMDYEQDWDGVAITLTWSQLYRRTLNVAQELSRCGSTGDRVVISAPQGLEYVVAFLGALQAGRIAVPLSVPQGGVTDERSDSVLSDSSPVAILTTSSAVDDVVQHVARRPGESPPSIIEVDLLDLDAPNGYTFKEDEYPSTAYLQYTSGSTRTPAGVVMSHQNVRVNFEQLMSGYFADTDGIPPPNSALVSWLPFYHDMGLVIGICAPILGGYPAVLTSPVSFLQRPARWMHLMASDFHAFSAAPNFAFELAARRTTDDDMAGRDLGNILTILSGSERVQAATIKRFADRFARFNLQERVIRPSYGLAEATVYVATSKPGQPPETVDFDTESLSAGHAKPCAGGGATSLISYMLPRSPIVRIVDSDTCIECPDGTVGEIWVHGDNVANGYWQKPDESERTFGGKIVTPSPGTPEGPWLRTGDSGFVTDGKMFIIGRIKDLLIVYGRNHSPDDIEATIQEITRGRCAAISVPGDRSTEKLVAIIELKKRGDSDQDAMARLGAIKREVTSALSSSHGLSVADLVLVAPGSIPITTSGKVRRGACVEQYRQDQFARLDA

[13] = molecular target: T4, High affinity choline transporter 1 (Homo sapiens, UniProt Q9GZV3); test: human choline transporter blockers, potency – cell-based, 5-point CRC, membrane potential dye, dose response (AID 504840); assay type: functional
T4 sequence (Q9GZV3 whole entry): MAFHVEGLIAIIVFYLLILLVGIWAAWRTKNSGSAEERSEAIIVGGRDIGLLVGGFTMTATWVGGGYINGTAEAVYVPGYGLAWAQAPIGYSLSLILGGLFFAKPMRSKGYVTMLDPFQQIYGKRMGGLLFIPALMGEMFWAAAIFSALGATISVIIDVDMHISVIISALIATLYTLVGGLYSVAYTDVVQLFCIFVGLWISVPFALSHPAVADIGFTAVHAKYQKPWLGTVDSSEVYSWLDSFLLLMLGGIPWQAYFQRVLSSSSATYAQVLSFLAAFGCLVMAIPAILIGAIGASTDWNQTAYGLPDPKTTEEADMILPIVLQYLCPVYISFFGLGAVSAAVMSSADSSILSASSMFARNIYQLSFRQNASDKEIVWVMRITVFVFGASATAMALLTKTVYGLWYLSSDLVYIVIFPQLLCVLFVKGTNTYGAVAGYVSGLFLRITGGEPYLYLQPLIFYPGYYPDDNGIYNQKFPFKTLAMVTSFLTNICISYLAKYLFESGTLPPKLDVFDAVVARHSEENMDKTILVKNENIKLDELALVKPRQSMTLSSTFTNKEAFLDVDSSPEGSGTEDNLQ

[14] = viability of PTEN-deleted HCT116 cells – cell-based, HCT116 PTEN knockout, dose response (AID 1047); assay type: functional;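 also: HCT116 colon tumor cells with PTEN knocked out; cells exposed to compound for 60 hours before readout; potency for loss of cell viability measured by luminescence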
[15] = viability of HCT116 lacking mutant beta-catenin – cell-based, human colon tumor, dose response (AID 1045); assay type: functional;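 also: HCT116 colon tumor cells with beta catenin knocked out; cells exposed to compound for 60 hours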
[16] = Trypanosoma cruzi growth suppression in host cells – NIH3T3 host cells, beta-gal luminescence, confirmation (AID 2044); assay type: functional, cell-based;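 also: intracellular parasites grown in NIH/3T3 mouse fibroblasts as host cells; luminescent beta-galactosidase reporter signal from transgenic T. cruzi replicating inside host cells; inhibitors lower the luminescence signal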
[17] = NIH3T3 cell viability loss – ATP luminescence, mouse fibroblasts, counter-screen, dose response (AID 2010); assay type: functional, cell-based;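 also: cells exposed to compound for about 90 hours before reading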

Chain of Induced myeloid leukemia cell differentiation protein Mcl-1 (Q07820 whole entry): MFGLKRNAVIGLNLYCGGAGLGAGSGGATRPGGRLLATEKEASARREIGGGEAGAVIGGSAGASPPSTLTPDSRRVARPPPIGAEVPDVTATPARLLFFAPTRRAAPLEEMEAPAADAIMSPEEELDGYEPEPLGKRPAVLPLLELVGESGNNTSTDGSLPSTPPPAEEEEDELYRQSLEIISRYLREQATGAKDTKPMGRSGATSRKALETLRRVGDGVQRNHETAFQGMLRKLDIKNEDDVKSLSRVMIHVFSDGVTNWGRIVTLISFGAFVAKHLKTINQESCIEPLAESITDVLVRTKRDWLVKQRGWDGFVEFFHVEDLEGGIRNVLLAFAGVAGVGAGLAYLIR
Chain of Large T antigen (P03070 whole entry): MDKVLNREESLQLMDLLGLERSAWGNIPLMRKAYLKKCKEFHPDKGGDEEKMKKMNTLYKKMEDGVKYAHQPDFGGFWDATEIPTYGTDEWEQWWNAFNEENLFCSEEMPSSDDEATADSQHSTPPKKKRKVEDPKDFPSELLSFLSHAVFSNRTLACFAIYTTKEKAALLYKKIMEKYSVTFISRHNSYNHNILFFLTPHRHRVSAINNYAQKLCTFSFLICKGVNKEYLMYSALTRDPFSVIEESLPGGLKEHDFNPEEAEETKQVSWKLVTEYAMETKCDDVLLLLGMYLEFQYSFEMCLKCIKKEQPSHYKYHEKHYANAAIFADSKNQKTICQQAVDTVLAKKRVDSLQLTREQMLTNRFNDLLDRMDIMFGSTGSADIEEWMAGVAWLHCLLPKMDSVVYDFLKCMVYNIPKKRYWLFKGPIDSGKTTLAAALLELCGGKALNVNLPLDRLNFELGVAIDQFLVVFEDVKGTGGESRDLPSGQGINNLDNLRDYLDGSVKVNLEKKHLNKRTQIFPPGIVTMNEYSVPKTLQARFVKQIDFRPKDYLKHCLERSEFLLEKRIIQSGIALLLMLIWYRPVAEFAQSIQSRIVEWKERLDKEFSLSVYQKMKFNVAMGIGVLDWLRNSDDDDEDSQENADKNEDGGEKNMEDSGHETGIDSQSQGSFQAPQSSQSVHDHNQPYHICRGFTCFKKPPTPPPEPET

For `CN(C)c1ccc(Nc2nc(N)c([N+](=O)[O-])c(N3CCOCC3)n2)cc1`, the IC50 [1] was 0.8 µM (active) and the IC50 (Large T antigen) was 3.84 µM (active).
For `CCS(=O)(=O)c1nc(S(=O)(=O)c2ccc(C)cc2)c(N2CC(C)OC(C)C2)s1` (configuration not stated), the EC50 [2] was > 12 µM (not active), the EC50 [3] was > 12 µM (not active) and the EC50 [4] was 0.81 µM (active). For the same compound, the EC50 (H4) was > 120 µM (not active) and the EC50 [5] was < 0.1 µM (active).
With `COc1ccc(N=C(S)Nc2cc(C)ccn2)c(OC)c1` the EC50 [2] was > 12 µM (not active), the EC50 [3] was 0.393 µM (active) and the EC50 [4] was 0.256 µM (active). The EC50 (H4) was > 120 µM (not active) and the EC50 [5] was < 0.1 µM (inconclusive).
With `COc1ccc(CN2CCC(C)(Oc3ccc4c(c3)OCO4)C2)c2ccccc12` (configuration not stated) the AC50 [6] was 6.46 µM (active), the AC50 [7] was 10.1 µM (active) and the AC50 [8] was 12.2 µM (active). For the same compound, the AC50 [9] was 10.1 µM (active).
In the case of `O=C(N/N=C/c1ccc2c(c1)OCO2)c1ccc(Br)o1`, the EC50 [2] was 0.433 µM (active), the EC50 [3] was 0.855 µM (active) and the EC50 [4] was 0.371 µM (active). The EC50 (H4) was 18.6 µM (inconclusive) and the EC50 [5] was < 0.1 µM (inconclusive).
With `CCOc1cccc(=NC2CCCCC2)c2c(C)[nH]c(C)c12` the IC50 (Nonstructural protein 1) was 68.8 µM (active) and the AC50 [10] was 3.49 µM (active).
With `COc1cccc(NC(=O)Cn2c(=O)oc3cc(S(=O)(=O)N4CCCC4)ccc32)c1` the EC50 [11] was > 195 µM (not active) and the AC50 [12] was 44.5 µM (active).
For `O=C(NCc1ccccc1)c1cnc2cc3c(cc2c1O)OCCO3`, the EC50 [2] was 0.334 µM (active), the EC50 [3] was 0.421 µM (active) and the EC50 [4] was 0.2 µM (active). The EC50 (H4) was 0.282 µM (active) and the EC50 [5] was < 0.1 µM (active).
With `O=C(/C=C/c1cn(-c2ccccc2)nc1-c1ccc2c(c1)OCCO2)NCCCN1CCOCC1` the AC50 [10] was 16.1 µM (active) and the IC50 [13] was 20 µM (active).
For `C[C@H]1CN([C@@H](C)CO)C(=O)Cc2cc(NC(=O)Cc3cn(C)c4ccccc34)ccc2O[C@H]1CN(C)S(=O)(=O)c1ccccc1`, the AC50 [6] was 12.7 µM (active), the AC50 [7] was 23.5 µM (active) and the AC50 [9] was 9.19 µM (active).
In the case of `Nc1c(S(=O)(=O)c2cccs2)c2nc3ccccc3nc2n1CCc1ccccc1`, the EC50 [14] was 27 µM (active), the AC50 [6] was 9.23 µM (active) and the EC50 [15] was 30 µM (active). For the same compound, the AC50 [8] was 12.7 µM (active) and the AC50 [9] was 9.26 µM (active).
In the case of `CN(C[C@@H](CC1CCCCC1)N(C[C@H](Cc1ccccc1)N(CCc1ccccc1)N=O)N=O)N=O`, the AC50 [6] was 5.14 µM (active), the AC50 [7] was 42.9 µM (active) and the AC50 [8] was 6.56 µM (active). The AC50 [9] was 8.38 µM (active).
With `CCc1nc2ccc(C(=O)NCCN3CCNC3=O)cn2c1N(CC)Cc1cccc(Br)c1` the AC50 [6] was 1.18 µM (active), the AC50 [7] was 3.08 µM (active) and the AC50 [8] was 1.85 µM (active). The AC50 [9] was 1.74 µM (active).
With `COc1ccc(C(=O)Cn2nnc(-c3ccccc3F)n2)cc1` the AC50 [12] was > 100 µM (inactive).
For `COc1ccc(N2CCc3c(C)nc4c(OC)cc(OC)cc4c32)cc1`, the EC50 [16] was 0.97 µM (active), the AC50 [10] was 3.96 µM (active) and the EC50 [17] was 36.5 µM (active).
